# Where two headings read alike, the source gives them in different places.
# Legend:
# [1] = system: NCI-H1975 cells (EGFR T790M L858R); test: EGFR-SOS cellular inhibition assay (CellTiter-Glo, 3D); assay type: cell-based; conditions: Homo sapiens
# [2] = system: MIA PaCa-2 cells (K-Ras G12C); test: Ras-SOS cellular growth inhibition assay (CellTiter-Glo, 3D); assay type: cell-based; conditions: Homo sapiens
# Procedure, shortened: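 MIA PaCa-2 cells grown in ultra-low-attachment plates (3D) in DMEM/Ham's F12 with 10% FCS and 2.5% horse serum, treated the day after seeding with a 9-point 3-fold compound series for about 5 days. Viability by CellTiter-Glo luminescence; IC50 from four-parameter fit.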
# SOS1 = SOS1 (Homo sapiens (Human), UniProt Q07889); test: Ras-SOS interaction assay (HTRF); assay type: biochemical
# Sequence of SOS1 (Q07889 564-1049): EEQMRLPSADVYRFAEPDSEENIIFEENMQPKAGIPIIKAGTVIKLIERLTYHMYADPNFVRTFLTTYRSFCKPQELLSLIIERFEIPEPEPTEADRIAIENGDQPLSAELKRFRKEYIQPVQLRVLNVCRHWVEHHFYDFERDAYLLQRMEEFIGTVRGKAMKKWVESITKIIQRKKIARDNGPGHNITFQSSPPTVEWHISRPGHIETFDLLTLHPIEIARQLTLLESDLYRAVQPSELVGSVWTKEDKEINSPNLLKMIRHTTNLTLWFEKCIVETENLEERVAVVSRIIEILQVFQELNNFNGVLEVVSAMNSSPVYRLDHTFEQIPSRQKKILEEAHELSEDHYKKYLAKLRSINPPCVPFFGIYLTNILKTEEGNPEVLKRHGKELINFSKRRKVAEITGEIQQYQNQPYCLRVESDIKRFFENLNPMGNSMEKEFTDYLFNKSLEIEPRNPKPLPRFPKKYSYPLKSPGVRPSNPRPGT
# [3] = 120 h, NCI-H1975, 3D proliferation, about 5 days, read-out: Bio-Cell-Prolif-3D (H1975 IC50)
# [4] = NCI-H1975, EGFR T790M L858R, read-out: IC50 in inhibiting growth of NCI-H1975 cell line
# [5] = MIA PaCa-2, 120 h, MIA PaCa-2, 3D proliferation, about 5 days, read-out: Bio-Cell-Prolif-3D (MiaPaca2 IC50)
# [6] = MIA PaCa-2, MIA PaCa-2, read-out: IC50 in inhibiting MIA PaCa-2 cell growth
# [7] = K-RasG13D utilized, read-out: IC50 inhibition of SOS
# [8] = K-RasG13D, read-out: IC50 value against SOS1
Compound,"IC50 [1, 3]","IC50 [1, 4]","IC50 [2, 5]","IC50 [2, 6]",IC50 (SOS1; [7]),IC50 (SOS1; [8])
"CCN1CCN(c2cc3c(N[C@H](C)c4cccc(C(F)(F)F)c4F)nc(C)nc3nc2OC)CC1 [Compound 383, (R)-6-(4-ethylpiperazin-1-yl)-N-(1-(2-fluoro-3-(trifluoromethyl)phenyl)ethyl)-7-methoxy-2-methylpyrido[2,3-d]pyrimidin-4-amine]",≤ 1000 nM,< 500 nM,≤ 1000 nM,< 500 nM,< 100 nM,< 50 nM
"CC(C)N1CCC(c2cc3c(N[C@H](C)c4cccc(C(F)(F)F)c4F)ncnc3nc2Cl)CC1 [Compound 384, (R)-7-chloro-N-(1-(2-fluoro-3-(trifluoromethyl)phenyl)ethyl)-6-(1-isopropylpiperidin-4-yl)pyrido[2,3-d] pyrimidin-4-amine]",≤ 1000 nM,< 500 nM,≤ 1000 nM,< 500 nM,< 100 nM,< 50 nM
"Cc1c([C@@H](C)Nc2ncnc3nc(Cl)c(C4CCN(C(C)C)CC4)cc23)cccc1C(F)(F)F [Compound 385, (R)-7-chloro-6-(1-isopropylpiperidin-4-yl)-N-(1-(2-methyl-3-(trifluoromethyl)phenyl)ethyl)pyrido [2,3-d]pyrimidin-4-amine]",≤ 1000 nM,< 500 nM,≤ 1000 nM,< 500 nM,< 100 nM,< 50 nM
"COc1nc2ncnc(N[C@H](C)c3cccc(C(F)(F)F)c3C)c2cc1N1CCN(C)CC1 [Compound 386, (R)-7-methoxy-N-(1-(2-methyl-3-(trifluoromethyl)phenyl)ethyl)-6-(4-methylpiperazin-1-yl)pyrido[2,3-d] pyrimidin-4-amine]",≤ 1000 nM,< 500 nM,≤ 1000 nM,< 500 nM,< 100 nM,< 50 nM
"Cc1nc(N[C@H](C)c2cccc(C(F)(F)F)c2F)c2cc(N3CCN(C(C)C)CC3)c(Cl)nc2n1 [Compound 387, (R)-7-chloro-N-(1-(2-fluoro-3-(trifluoromethyl)phenyl)ethyl)-6-(4-isopropylpiperazin-1-yl)-2-methylpyrido[2,3-d] pyrimidin-4-amine]",≤ 1000 nM,< 500 nM,≤ 1000 nM,< 500 nM,< 100 nM,< 50 nM

# Other lines, results leading:
"IC50 [1, 3]","IC50 [1, 4]","IC50 [2, 5]","IC50 [2, 6]",IC50 (SOS1; [7]),IC50 (SOS1; [8]),Compound
≤ 1000 nM,< 500 nM,≤ 1000 nM,< 500 nM,< 100 nM,–,"CCN1CCN(c2cc3c(N[C@H](C)c4cccc(C(F)F)c4F)ncnc3nc2OC)CC1 [Compound 372, (R)-N-(1-(3-(difluoromethyl)-2-fluorophenyl)ethyl)-6-(4-ethylpiperazin-1-yl)-7-methoxypyrido[2,3-d]pyrimidin-4-amine]"
≤ 1000 nM,< 500 nM,≤ 1000 nM,< 500 nM,< 100 nM,< 50 nM,"COc1nc2nc(C)nc(N[C@H](C)c3cccc(C(F)(F)C4CCN(C(C)C)CC4)c3F)c2cc1C1CCS(=O)(=O)CC1 [Compound 379, (R)-4-(4-((1-(3-(difluoro(1-isopropylpiperidin-4-yl)methyl)-2-fluorophenyl)ethyl)amino)-7-methoxy-2-methylpyrido[2,3-d]pyrimidin-6-yl)tetrahydro-2H-thiopyran 1,1-dioxide]"
≤ 1000 nM,< 500 nM,≤ 1000 nM,< 500 nM,< 100 nM,< 50 nM,"COc1nc2ncnc(N[C@H](C)c3cccc(C(F)(F)F)c3C)c2cc1N1CCS(=O)(=O)CC1 [Compound 381, (R)-4-(7-methoxy-4-((1-(2-methyl-3-(trifluoromethyl)phenyl)ethyl)amino)pyrido[2,3-d]pyrimidin-6-yl) thiomorpholine 1,1-dioxide]"
